The source of these data is ChEMBL document CHEMBL4196035, “Discovery and optimization of ATX inhibitors via modeling, synthesis and biological evaluation” (Eur J Med Chem, 2018).

A value given as a limit tells only on which side of the number the result lay.

For series [1], the target named is T1, Autotaxin (Homo sapiens, UniProt Q13822). Kind of series: Inhibition of human ENPP2 using bis-pNPP as substrate measured every 10 secs for 10 mins by spectrophotometric assay.
Series [2] has as its target T1, Autotaxin. Kind of series: Inhibition of human ENPP2 using FS3 as substrate measured every 5 mins for 30 mins by fluorescence assay.
Series [3] relates to Rattus norvegicus. The series can be described thus: Dose normalized AUC in Sprague-Dawley rat at 2 mg/kg, iv administered as single bolus dose by HPLC-MS/MS analysis. The note with it: in vivo. The class given is ADME, organism-based.
Series [4] is described as follows: Tmax in Sprague-Dawley rat at 2 mg/kg, iv administered as single bolus dose by HPLC-MS/MS analysis. The note with it: in vivo. The class given is ADME, organism-based.
A short description of series [5]: Metabolic stability in Sprague-Dawley rat liver microsomes assessed as parent compound remaining at 5 uM preincubated for 10 mins followed by NADPH addition measured after 60 mins by LC-MS/MS analysis. The class given is ADME, microsome. The note with it: read-out: Stability. (In general: Microsomes from liver hold many membrane-bound enzymes, among them those of drug oxidation.)

The nature of series [6]: Volume of distribution at steady state in Sprague-Dawley rat at 2 mg/kg, iv administered as single bolus dose by HPLC-MS/MS analysis. The class given is ADME, organism-based. The note with it: in vivo, read-out: Vdss.
Series [7] can be described thus: Clearance in Sprague-Dawley rat at 10 mg/kg, iv administered as single bolus dose by HPLC-MS/MS analysis. The class given is ADME, organism-based. Particulars: in vivo.
Series [8] can be described thus: Tmax in Sprague-Dawley rat at 10 mg/kg, iv administered as single bolus dose by HPLC-MS/MS analysis. The class given is ADME, organism-based. The note with it: in vivo.
Series [9] in a line: Half life in human liver microsomes at 5 uM preincubated for 10 mins followed by NADPH addition measured up to 60 mins by LC-MS/MS analysis. The class given is ADME, microsome.
Series [10] in a line: Terminal half life in Sprague-Dawley rat at 10 mg/kg, iv administered as single bolus dose by HPLC-MS/MS analysis. The note with it: in vivo, read-out: beta t1/2 (converted). The class given is ADME, organism-based.
The nature of series [11]: Metabolic stability in human liver microsomes assessed as parent compound remaining at 5 uM preincubated for 10 mins followed by NADPH addition measured after 60 mins by LC-MS/MS analysis. The class given is ADME, microsome. Particulars: read-out: Stability.
Series [12] in a line: Clearance in Sprague-Dawley rat at 2 mg/kg, iv administered as single bolus dose by HPLC-MS/MS analysis. Particulars: in vivo. The class given is ADME, organism-based.
Series [13] has as its system Rattus norvegicus. Kind of series: Dose normalized Cmax in Sprague-Dawley rat at 20 mg/kg, iv administered as single bolus dose by HPLC-MS/MS analysis. The note with it: in vivo. The class given is ADME, organism-based.
Series [14] can be described thus: Cmax in Sprague-Dawley rat at 20 mg/kg, iv administered as single bolus dose by HPLC-MS/MS analysis. The class given is ADME, organism-based. Also on record: dose 20 mg/kg, route intravenous. Particulars: in vivo.
The test system of series [15] is Rattus norvegicus. Kind of series: Dose normalized AUC in Sprague-Dawley rat at 10 mg/kg, iv administered as single bolus dose by HPLC-MS/MS analysis. Particulars: in vivo. The class given is ADME, organism-based.
Series [16] has as its system Rattus norvegicus. The series can be described thus: Dose normalized AUC in Sprague-Dawley rat at 20 mg/kg, iv administered as single bolus dose by HPLC-MS/MS analysis. The class given is ADME, organism-based. Particulars: in vivo.
Series [17] can be described thus: Terminal half life in Sprague-Dawley rat at 20 mg/kg, iv administered as single bolus dose by HPLC-MS/MS analysis. The class given is ADME, organism-based. The note with it: in vivo, read-out: beta t1/2 (converted).
Series [18] in a line: Half life in Sprague-Dawley rat liver microsomes at 5 uM preincubated for 10 mins followed by NADPH addition measured up to 60 mins by LC-MS/MS analysis. The class given is ADME, microsome.
Series [19] is described as follows: Cmax in Sprague-Dawley rat at 10 mg/kg, iv administered as single bolus dose by HPLC-MS/MS analysis. The class given is ADME, organism-based. Particulars: in vivo. Also on record: dose 10 mg/kg, route intravenous.
A short description of series [20]: AUC in Sprague-Dawley rat at 2 mg/kg, iv administered as single bolus dose by HPLC-MS/MS analysis. Particulars: in vivo. The class given is ADME, organism-based.
Series [21] deals with Rattus norvegicus. Kind of series: Dose normalized Cmax in Sprague-Dawley rat at 2 mg/kg, iv administered as single bolus dose by HPLC-MS/MS analysis. The note with it: in vivo. The class given is ADME, organism-based.
Series [22] concerns Rattus norvegicus. The series can be described thus: Dose normalized Cmax in Sprague-Dawley rat at 10 mg/kg, iv administered as single bolus dose by HPLC-MS/MS analysis. The class given is ADME, organism-based. Particulars: in vivo.
The nature of series [23]: AUC in Sprague-Dawley rat at 10 mg/kg, iv administered as single bolus dose by HPLC-MS/MS analysis. The class given is ADME, organism-based. The note with it: in vivo.
The nature of series [24]: Cmax in Sprague-Dawley rat at 2 mg/kg, iv administered as single bolus dose by HPLC-MS/MS analysis. The class given is ADME, organism-based. Also on record: dose 2 mg/kg, route intravenous. The note with it: in vivo.
The target in series [25] is T1, Autotaxin. The series can be described thus: Inhibition of ENPP2 in human SKHEP1 cells using LPC as substrate preincubated for 15 mins followed by substrate addition measured after 3 hrs by LC-MS/MS analysis. The class given is cell-based.
Series [26] can be described thus: Volume of distribution at steady state in Sprague-Dawley rat at 20 mg/kg, iv administered as single bolus dose by HPLC-MS/MS analysis. The class given is ADME, organism-based. Particulars: in vivo, read-out: Vdss.
Series [27] addresses T1, Autotaxin. The series can be described thus: Inhibition of ENPP2 in human A2058 cells using LPC as substrate preincubated for 15 mins followed by substrate addition measured after 3 hrs by LC-MS/MS analysis. The class given is cell-based.
Series [28] is described as follows: Tmax in Sprague-Dawley rat at 20 mg/kg, iv administered as single bolus dose by HPLC-MS/MS analysis. The class given is ADME, organism-based. Particulars: in vivo.
Series [29] can be described thus: Volume of distribution at steady state in Sprague-Dawley rat at 10 mg/kg, iv administered as single bolus dose by HPLC-MS/MS analysis. The class given is ADME, organism-based. The note with it: in vivo, read-out: Vdss.
The nature of series [30]: AUC in Sprague-Dawley rat at 20 mg/kg, iv administered as single bolus dose by HPLC-MS/MS analysis. The class given is ADME, organism-based. Particulars: in vivo.
Series [31] can be described thus: Terminal half life in Sprague-Dawley rat at 2 mg/kg, iv administered as single bolus dose by HPLC-MS/MS analysis. The class given is ADME, organism-based. The note with it: in vivo, read-out: beta t1/2 (converted).
Series [32] is described as follows: Clearance in Sprague-Dawley rat at 20 mg/kg, iv administered as single bolus dose by HPLC-MS/MS analysis. The class given is ADME, organism-based. The note with it: in vivo.
Series [33] addresses T1, Autotaxin. The series can be described thus: Inhibition of ENPP2 in human plasma using LPC as substrate preincubated for 15 mins followed by substrate addition measured after 3 hrs by LC-MS/MS analysis.

`O=C(NO)c1ccc(NC(=O)C2CCN(C(=O)OCc3cc(Cl)cc(Cl)c3)CC2)cc1`: the IC50 – broadly, the concentration that inhibits the measured activity by half – against Autotaxin [1] was 496 nM; against Autotaxin [2], 18.7 nM.

Regarding `O=C(NC1CCN(C(=O)OCc2cc(Cl)cc(Cl)c2)C1)c1nc(CP(=O)(O)O)cs1` (centres undefined), the IC50 was determined as 54.7 nM at Autotaxin [1] and 3.71 nM on Autotaxin [2].

As to `O=C(Nc1ccc(CP(=O)(O)O)cc1)C1CCN(C(=O)OCc2ccccc2)CC1`, the results for the IC50 on Autotaxin [1] and on Autotaxin [2] were 255 nM and 7.17 nM, respectively.

`O=C(Nc1ccc(CP(=O)(O)O)cc1)C1CCN(C(=O)OCc2cccc(Cl)c2)CC1`: the values for the half-inhibitory concentration (IC50) on Autotaxin [1] and on Autotaxin [2] were 39.6 nM and 1.79 nM, respectively.

As to `O=C(NC1CCN(C(=O)OCc2cc(Cl)cc(Cl)c2)CC1)c1ccc(CP(=O)(O)O)cc1`, the IC50 worked out at 5.22 nM against Autotaxin [1] and 1.36 nM against Autotaxin [2].

With `O=C(Nc1ccc(CP(=O)(O)O)cc1)C1CCN(C(=O)OCc2cc(Cl)cc(Cl)c2)CC1`, the AUC/dose in the series on Rattus norvegicus [3] came to 1.53 kg·h/L; in the series with Rattus norvegicus [15], 1.27 kg·h/L; with Rattus norvegicus [16], 1.35 kg·h/L. For the same compound, the Tmax in series [4], in series [8] and in series [28] was 1.2 min throughout. In addition, the IC50 turned out to be 2.18 nM against Autotaxin [1]; 1.23 nM on Autotaxin [2]; 7.9 nM at Autotaxin [25]; 1.3 nM on Autotaxin [27]; 136 nM against Autotaxin [33]. The remaining at 1 h, 5 µM in [5] and in series [11] was above 99.9% each time. The Vd worked out at 0.15 L/kg in series [6], 2.24 L/kg in series [26] and 0.33 L/kg in [29]. In addition, the clearance (as a rule, the rate of elimination divided by the concentration) in [7] was 13.3 mL/min/kg; in series [12], 11.3 mL/min/kg; in [32] it was 12.2 mL/min/kg. Further, the half-life at 5 µM in [9] and in [18] was above 60 min each time. Further, the values for the half-life in [10], in [17] and in series [31] were 42.6 min, 245 min and 17.4 min, respectively. For the same compound, the values for the Cmax/dose in the series on Rattus norvegicus [13], in the series with Rattus norvegicus [21] and in the series on Rattus norvegicus [22] were 9.98 kg/L, 16.6 kg/L and 11.7 kg/L, respectively. For the same compound, the Cmax (commonly the maximum level reached in the sampled fluid or tissue) in series [14] is 200 µg/mL; in series [19], 117 µg/mL; in series [24], 33.1 µg/mL. Besides, the AUC (in general, the area under the concentration-time curve, a measure of exposure) was determined as 3050 ng·h/mL in series [20], 12700 ng·h/mL in series [23] and 27000 ng·h/mL in series [30].

Consider `NS(=O)(=O)Cc1ccc(NC(=O)C2CCN(C(=O)OCc3cc(Cl)cc(Cl)c3)CC2)cc1`, for which the figures for the IC50 against Autotaxin [1] and at Autotaxin [2] were 73.5 nM and 4.62 nM, respectively.

Turning to `O=C(Nc1nc(CP(=O)(O)O)cs1)C1CCN(C(=O)OCc2cc(Cl)cc(Cl)c2)CC1`, the IC50 was found to be 26.5 nM against Autotaxin [1] and 1.75 nM against Autotaxin [2].

On to `O=C(Nc1ccc(CP(=O)(O)O)cc1)C1CCN(C(=O)OCc2ccc(OC(F)(F)F)cc2F)CC1`, for which the IC50 was determined as 2.78 nM against Autotaxin [1] and 1.67 nM against Autotaxin [2].

Consider `O=C(O)Cc1ccc(NC(=O)C2CCN(C(=O)OCc3cc(Cl)cc(Cl)c3)CC2)cc1`, for which the IC50 on Autotaxin [1] amounted to 439 nM; at Autotaxin [2], 8.44 nM.

For `O=C(Nc1ccc(CP(=O)(O)O)cc1)C1CCN(C(=O)OCc2ccccc2Cl)CC1`, the figures for the IC50 against Autotaxin [1] and against Autotaxin [2] were 213 nM and 3.29 nM, respectively.

As to `NS(=O)(=O)Nc1ccc(NC(=O)C2CCN(C(=O)OCc3cc(Cl)cc(Cl)c3)CC2)cc1`, the IC50 against Autotaxin [1] was determined as 250 nM; against Autotaxin [2], 8.9 nM.

For `O=C(Nc1ccc(CP(=O)(O)O)cc1)C1CCN(C(=O)OCc2ccc(OC(F)(F)F)cc2)CC1`, the IC50 on Autotaxin [1] turned out to be 3.12 nM; against Autotaxin [2], 1.97 nM.

Regarding `O=C(Nc1ccc(CP(=O)(O)O)cc1)C1CCN(C(=O)OCc2ccccc2F)CC1`, the IC50 came out at 453 nM against Autotaxin [1] and 7.13 nM against Autotaxin [2].
